In ChEMBL document CHEMBL3797190, “Development of 3,5-Dinitrobenzylsulfanyl-1,3,4-oxadiazoles and Thiadiazoles as Selective Antitubercular Agents Active Against Replicating and Nonreplicating Mycobacterium tuberculosis” (J Med Chem, 2016):
Values after ≈ are worked out from the molar mass of the structure shown.

Tests used:
[1] = test system: Mycobacterium tuberculosis; assay: microbe, parasite or virus in culture; conditions: 234/2005, 336 h
[2] = test system: Mycobacterium tuberculosis; assay: Antimycobacterial activity against multi drug resistant Mycobacterium tuberculosis 8666/2010 after 14 days by microdilution method; format: functional; conditions: for MIC99: 8666/2010, 336 h
[3] = test system: Mycobacterium tuberculosis; assay: Antimycobacterial activity against multi drug resistant Mycobacterium tuberculosis Praha 4 after 14 days by microdilution method; conditions: Praha 4, 336 h
[4] = test system: Mycobacterium tuberculosis; assay: Antimycobacterial activity against multi drug resistant Mycobacterium tuberculosis Praha 131 after 14 days by microdilution method; format: functional; conditions: for MIC99: Praha 131, 336 h
[5] = test system: Mycobacterium tuberculosis; assay: Antimycobacterial activity against multi drug resistant Mycobacterium tuberculosis Praha 1 after 21 days by microdilution method; format: functional; conditions: Praha 1, 504 h
[6] = test system: Mycobacterium tuberculosis; assay: Antimycobacterial activity against multi drug resistant Mycobacterium tuberculosis 8666/2010 after 21 days by microdilution method; format: functional; conditions: 8666/2010, 504 h
[7] = test system: Mycobacterium tuberculosis; assay: Antimycobacterial activity against multi drug resistant Mycobacterium tuberculosis Praha 131 after 21 days by microdilution method; format: functional; conditions: Praha 131, 504 h
[8] = test system: Mycobacterium tuberculosis; assay: Antimycobacterial activity against multi drug resistant Mycobacterium tuberculosis 9449/2007 after 14 days by microdilution method; format: functional; conditions: for MIC99: 9449/2007, 336 h
[9] = test system: Mycobacterium tuberculosis; assay: Antimycobacterial activity against multi drug resistant Mycobacterium tuberculosis Praha 4 after 21 days by microdilution method; format: functional; conditions: Praha 4, 504 h
[10] = test system: Mycobacterium tuberculosis; assay: Antimycobacterial activity against multi drug resistant Mycobacterium tuberculosis 234/2005 after 21 days by microdilution method; format: functional; conditions: 234/2005, 504 h
[11] = test system: Mycobacterium tuberculosis; assay: Antimycobacterial activity against multi drug resistant Mycobacterium tuberculosis 9449/2007 after 21 days by microdilution method; format: functional; conditions: 9449/2007, 504 h
[12] = test system: Mycobacterium tuberculosis; assay: Antimycobacterial activity against multi drug resistant Mycobacterium tuberculosis Praha 1 after 14 days by microdilution method; format: functional; conditions: for MIC99: Praha 1, 336 h

O=[N+]([O-])c1cc(CSc2nnc(-c3ccccc3)o2)cc([N+](=O)[O-])c1
MIC99 [1]: ≤ 0.03 µM | MIC99 [2]: ≤ 0.03 µM | MIC99 [3]: ≤ 0.03 µM | MIC99 [4]: ≤ 0.03 µM

O=[N+]([O-])c1cc(CSc2nnc(-c3ccc(Cl)cc3)s2)cc([N+](=O)[O-])c1
MIC99 [1]: 0.5 µM (≈ 0.204 µg/mL) | MIC99 [5]: 0.5 µM (≈ 0.204 µg/mL) | MIC99 [6]: 0.5 µM (≈ 0.204 µg/mL) | MIC99 [2]: 0.25 µM (≈ 0.102 µg/mL) | MIC99 [7]: 0.5 µM (≈ 0.204 µg/mL) | MIC99 [3]: 0.25 µM (≈ 0.102 µg/mL) | MIC99 [8]: 0.25 µM (≈ 0.102 µg/mL) | MIC99 [9]: 0.5 µM (≈ 0.204 µg/mL) | MIC99 [10]: 0.5 µM (≈ 0.204 µg/mL) | MIC99 [11]: 0.5 µM (≈ 0.204 µg/mL) | MIC99 [12]: 0.25 µM (≈ 0.102 µg/mL) | MIC99 [4]: 0.5 µM (≈ 0.204 µg/mL)

CC1COc2c(N3CCN(C)CC3)c(F)cc3c(=O)c(C(=O)O)cn1c23 (stereo unspecified) [OFLOXACIN]
MIC99 [3]: > 16 µM

GENTAMICIN
MIC>99 [2]: 2 µM | MIC>99 [8]: 1 µM | MIC>99 [12]: 1 µM | MIC>99 [4]: > 8 µM

CN[C@@H]1[C@H](O[C@H]2[C@H](O[C@H]3[C@H](O)[C@@H](O)[C@H](N=C(N)N)[C@@H](O)[C@@H]3N=C(N)N)O[C@@H](C)[C@]2(O)C=O)O[C@@H](CO)[C@H](O)[C@H]1O [STREPTOMYCIN]
MIC99 [2]: > 32 µM | MIC99 [3]: > 32 µM | MIC99 [8]: > 32 µM | MIC99 [4]: > 32 µM

CO[C@H]1/C=C/O[C@@]2(C)Oc3c(C)c(O)c4c(O)c(c(/C=N/N5CCN(C)CC5)c(O)c4c3C2=O)NC(=O)/C(C)=C\C=C\[C@H](C)[C@H](O)[C@@H](C)[C@@H](O)[C@@H](C)[C@H](OC(C)=O)[C@@H]1C [RIFAMPIN]
MIC99 [1]: > 8 µM | MIC99 [2]: > 8 µM | MIC99 [3]: > 8 µM | MIC99 [8]: > 8 µM | MIC99 [12]: > 8 µM | MIC99 [4]: > 8 µM

COc1ccc(-c2nnc(SCc3cc([N+](=O)[O-])cc([N+](=O)[O-])c3)o2)cc1
MIC99 [1]: 0.06 µM (≈ 0.0233 µg/mL) | MIC99 [6]: 0.06 µM (≈ 0.0233 µg/mL) | MIC99 [2]: 0.06 µM (≈ 0.0233 µg/mL) | MIC99 [3]: 0.06 µM (≈ 0.0233 µg/mL) | MIC99 [8]: 0.06 µM (≈ 0.0233 µg/mL) | MIC99 [12]: 0.06 µM (≈ 0.0233 µg/mL) | MIC99 [4]: 0.06 µM (≈ 0.0233 µg/mL)

NCC[C@H](O)C(=O)N[C@@H]1C[C@H](N)[C@@H](O[C@H]2O[C@H](CN)[C@@H](O)[C@H](O)[C@H]2O)[C@H](O)[C@H]1O[C@H]1O[C@H](CO)[C@@H](O)[C@H](N)[C@H]1O [AMIKACIN]
MIC99 [4]: > 32 µM

COc1ccc(-c2nnc(SCc3cc([N+](=O)[O-])cc([N+](=O)[O-])c3)s2)cc1
MIC99 [1]: 0.125 µM (≈ 0.0506 µg/mL) | MIC99 [5]: 0.25 µM (≈ 0.101 µg/mL) | MIC99 [6]: 0.125 µM (≈ 0.0506 µg/mL) | MIC99 [2]: 0.06 µM (≈ 0.0243 µg/mL) | MIC99 [7]: 0.25 µM (≈ 0.101 µg/mL) | MIC99 [3]: 0.125 µM (≈ 0.0506 µg/mL) | MIC99 [8]: 0.125 µM (≈ 0.0506 µg/mL) | MIC99 [9]: 0.25 µM (≈ 0.101 µg/mL) | MIC99 [10]: 0.25 µM (≈ 0.101 µg/mL) | MIC99 [11]: 0.25 µM (≈ 0.101 µg/mL) | MIC99 [12]: 0.125 µM (≈ 0.0506 µg/mL) | MIC99 [4]: 0.125 µM (≈ 0.0506 µg/mL)
